Tests used:
[1] = target: T1, PPARG/RXRA LBD heterodimer (Homo sapiens, UniProt P37231); assay: PPARγ-NCOR1 recruitment assay (TR-FRET); assay type: biochemical; details: for Emax: 3 h, maximal extent, T0070907 defined as 100%, DMSO 0%, read-out: % NCOR recruitment relative to T907; for EC50: TR-FRET, NCOR1 ID2 peptide, 80 nM Rosiglitazone, 3 hours, read-out: PPARG-NCOR recruitment assay EC50
T1 construct: 2 nM WT PPARG LBD (E. coli expressed, His-TEV-Q203-Y477); fused on or other part: N-terminal His tag with TEV site on the PPARG LBD
Protocol: Compound potency (EC50) and maximal extent of NCOR1 recruitment to PPARG were assessed a TR-FRET binding assay measuring association of a biotinylated NCOR1 ID2 peptide (Biotin-[…]-amide) to PPARG/RXRA LBD heterodimer.
T1 sequence (O75376 2251-2273 limits assumed, one chain of several, further chain): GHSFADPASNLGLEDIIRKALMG

[2] = target: T2, PPARG/RXRA LBD heterodimer (Homo sapiens, UniProt P37231); assay: PPARγ-MED1 blockade assay (TR-FRET); assay type: biochemical; details: for EC50: TR-FRET, MED1 LxxLL peptide, 80 nM Rosiglitazone, 3 hours; for Emax: maximal extent, GW9662 defined as 100%, DMSO 0%, read-out: % MED1 blockade relative to GW9662
T2 construct: His-TEV-Q203-Y477; Uniprot ID P37231-2; made in house; host or cells: E. coli
T2 sequence (P37231 203-477 isoform P37231-2): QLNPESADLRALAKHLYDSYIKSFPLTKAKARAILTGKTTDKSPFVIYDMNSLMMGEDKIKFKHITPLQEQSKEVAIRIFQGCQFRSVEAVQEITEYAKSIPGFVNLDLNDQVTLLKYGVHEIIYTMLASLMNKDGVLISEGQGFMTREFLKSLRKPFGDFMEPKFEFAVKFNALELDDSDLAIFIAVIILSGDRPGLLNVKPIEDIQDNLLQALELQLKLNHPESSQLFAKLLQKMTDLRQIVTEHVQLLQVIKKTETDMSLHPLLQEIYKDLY
T2 sequence (P19793 228-462 partner limits assumed): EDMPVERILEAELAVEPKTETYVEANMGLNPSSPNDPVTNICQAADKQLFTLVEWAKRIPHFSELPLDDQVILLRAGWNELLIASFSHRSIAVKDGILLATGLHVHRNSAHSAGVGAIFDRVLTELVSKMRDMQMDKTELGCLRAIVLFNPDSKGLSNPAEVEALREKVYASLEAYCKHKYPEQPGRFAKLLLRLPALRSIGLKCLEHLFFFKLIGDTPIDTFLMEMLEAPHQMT
Protocol: Compound potency (IC50) and maximal extent of MED1 repulsion to PPARG were assessed a TR-FRET binding assay measuring association of a biotinylated MED1 LxxLL peptide (Biotin-[…]-amide) to PPARG/RXRA LBD heterodimer.

[3] = test system: ANGPTL4, a PPARG target gene, in HT1197 (RXRA S427F mutation) cells; assay: Bladder cancer pharmacodynamic assay, HT1197 cell assay (qPCR of PPARG target gene ANGPTL4); assay type: cell-based; details: Homo sapiens; for inhibition at 0.1 µM: read-out: % inhibition of ANGPTL4 @ 100 nM, 100 nM compound, 24 hours, relative to DMSO control; for EC50: 24 hours treatment, qPCR
Protocol: Quantitative PCR was performed using an ABI QuantStudio 7 Flex Reaction system. Data were analyzed and reported relative to DMSO control using the comparative Ct method (ΔΔCt).

Row | SMILES | Emax [1] [%] | EC50 [1] [nM] | EC50 [2] [nM] | Emax [2] [%] | EC50 [3] [nM] | inhibition at 0.1 µM [3] [%]
1 | COc1ccc(C#N)nc1-c1cc(=O)c2c(F)cc(F)cc2[nH]1 [Example 7, 6-(5,7-difluoro-4-oxo-1,4-dihydroquinolin-2-yl)-5-methoxypicolinonitrile] | > 100 | > 10000 | > 10000 | > 100 | – | 23
2 | CSc1ccc(C#N)nc1-c1cc(=O)c2c(F)cc(F)cc2[nH]1 [Example 8, 6-(5,7-difluoro-4-oxo-1,4-dihydroquinolin-2-yl)-5-(methylthio)picolinonitrile] | > 100 | > 10000 | > 10000 | > 100 | – | –
3 | COc1cnc(C#N)cc1-c1cc(=O)c2c(F)cc(F)cc2[nH]1 [Example 9, 4-(5,7-difluoro-4-oxo-1,4-dihydroquinolin-2-yl)-5-methoxypicolinonitrile] | < 100 | 100 to 1000 | 100 to 1000 | > 100 | – | 22
4 | CN(C)CCOc1cnc(C#N)cc1-c1cc(=O)c2c(F)cc(F)cc2[nH]1 [Example 11, 4-(5,7-difluoro-4-oxo-1,4-dihydroquinolin-2-yl)-5-(2-(dimethylamino)-ethoxy)-picolinonitrile] | > 100 | 1000 to 10000 | 1000 to 10000 | > 100 | – | 58
5 | CCSc1cnc(C#N)cc1-c1cc(=O)c2c(F)cc(F)cc2[nH]1 [Example 12, 4-(5,7-difluoro-4-oxo-1,4-dihydroquinolin-2-yl)-5-(ethylthio)picolinonitrile] | < 100 | > 10000 | > 10000 | < 100 | – | 18
6 | N#Cc1ccc(Cl)c(-c2cc(=O)c3c(F)c(N4CCS(=O)(=O)CC4)c(F)cc3[nH]2)n1 [Example 17, 5-chloro-6-(6-(1,1-dioxidothiomorpholino)-5,7-difluoro-4-oxo-1,4-dihydroquinolin-2-yl)picolinonitrile] | > 100 | 10 to 100 | 10 to 100 | > 100 | – | 78
7 | N#Cc1cc(-c2cc(=O)c3c(F)c(N4CCS(=O)(=O)CC4)c(F)cc3[nH]2)c(Cl)cn1 [Example 18, 5-chloro-4-(6-(1,1-dioxidothiomorpholino)-5,7-difluoro-4-oxo-1,4-dihydroquinolin-2-yl)picolinonitrile] | > 100 | 10 to 100 | 10 to 100 | > 100 | – | 57
8 | CN(C)C(=O)C1CCN(c2c(F)cc3[nH]c(-c4cc(C#N)ncc4Cl)cc(=O)c3c2F)CC1 [Example 19, 1-(2-(5-chloro-2-cyanopyridin-4-yl)-5,7-difluoro-4-oxo-1,4-dihydroquinolin-6-yl)-N,N-dimethylpiperidine-4-carboxamide] | > 100 | 10 to 100 | 10 to 100 | > 100 | – | 84
9 | CN1CCC(c2c(F)cc3[nH]c(-c4cc(C#N)ncc4Cl)cc(=O)c3c2F)CC1 [Example 20, 5-chloro-4-(5,7-difluoro-6-(1-methylpiperidin-4-yl)-4-oxo-1,4-dihydroquinolin-2-yl)picolinonitrile] | > 100 | 10 to 100 | 10 to 100 | > 100 | – | 80
10 | CS(=O)(=O)c1cnc(C#N)cc1-c1cc(=O)c2c(F)cc(F)cc2[nH]1 [Example 29, 4-(5,7-difluoro-4-oxo-1,4-dihydroquinolin-2-yl)-5-(methylsulfonyl)picolinonitrile] | – | – | – | – | 0.49 | 90

More lines, main results first:

Row | Emax [1] [%] | EC50 [1] [nM] | EC50 [2] [nM] | Emax [2] [%] | EC50 [3] [nM] | SMILES | inhibition at 0.1 µM [3] [%]
11 | > 100 | < 10 | < 10 | > 100 | – | CN(C)C(=O)[C@H]1CCCN(c2c(F)cc3[nH]c(-c4cc(C#N)ncc4S(C)(=O)=O)cc(=O)c3c2F)C1 (single isomer, unassigned) [Example 34] | 87
12 | > 100 | 10 to 100 | 10 to 100 | > 100 | – | N#Cc1ccc(Cl)c(-c2cc(=O)c3cc(F)c(F)cc3[nH]2)n1 [Example 1, 5-chloro-6-(6,7-difluoro-4-oxo-1,4-dihydroquinolin-2-yl)picolinonitrile] | 91
13 | > 100 | < 10 | < 10 | > 100 | 0.14 | N#Cc1cc(-c2cc(=O)c3c(F)cc(F)cc3[nH]2)c(Cl)cn1 [Example 2, 5-chloro-4-(5,7-difluoro-4-oxo-1,4-dihydroquinolin-2-yl)picolinonitrile] | 91
14 | > 100 | < 10 | < 10 | > 100 | 0.09 | N#Cc1ccc(Cl)c(-c2cc(=O)c3c(F)cc(F)cc3[nH]2)n1 [Example 3, 5-chloro-6-(5,7-difluoro-4-oxo-1,4-dihydroquinolin-2-yl)picolinonitrile] | 95
15 | > 100 | < 10 | < 10 | > 100 | – | N#Cc1cc(-c2cc(=O)c3ccc(Cl)cc3[nH]2)c(Cl)cn1 [Example 4, 5-chloro-4-(7-chloro-4-oxo-1,4-dihydroquinolin-2-yl)picolinonitrile] | 88
16 | < 100 | 10 to 100 | 10 to 100 | > 100 | – | N#Cc1ccc(Cl)c(-c2cc(=O)c3ccccc3[nH]2)n1 [Example 5, 5-chloro-6-(4-oxo-1,4-dihydroquinolin-2-yl)picolinonitrile] | 71
17 | > 100 | < 10 | < 10 | > 100 | – | N#Cc1ccc(Cl)c(-c2cc(=O)c3ccc(Cl)cc3[nH]2)n1 [Example 6, 5-chloro-6-(7-chloro-4-oxo-1,4-dihydroquinolin-2-yl)picolinonitrile] | 73
18 | > 100 | 10 to 100 | 10 to 100 | > 100 | – | CN1CCN(c2c(F)cc3[nH]c(-c4nc(C#N)ccc4Cl)cc(=O)c3c2F)CC1 [Example 13, 5-chloro-6-(5,7-difluoro-6-(4-methylpiperazin-1-yl)-4-oxo-1,4-dihydroquinolin-2-yl)picolinonitrile] | 78
19 | > 100 | 10 to 100 | 10 to 100 | > 100 | – | CN1CCN(c2cc3c(=O)cc(-c4cc(C#N)ncc4Cl)[nH]c3cc2Cl)CC1 [Example 14, 5-chloro-4-(7-chloro-6-(4-methylpiperazin-1-yl)-4-oxo-1,4-dihydroquinolin-2-yl)picolinonitrile] | 88
20 | > 100 | 10 to 100 | 10 to 100 | > 100 | 3.1 | CN1CCN(c2c(F)cc3[nH]c(-c4cc(C#N)ncc4Cl)cc(=O)c3c2F)CC1 [Example 15, 5-chloro-4-(5,7-difluoro-6-(4-methylpiperazin-1-yl)-4-oxo-1,4-dihydroquinolin-2-yl)picolinonitrile] | 81
21 | > 100 | 10 to 100 | 10 to 100 | > 100 | – | CN1CCC(c2c(F)cc3[nH]c(-c4nc(C#N)ccc4Cl)cc(=O)c3c2F)CC1 [Example 16, 5-chloro-6-(5,7-difluoro-6-(1-methylpiperidin-4-yl)-4-oxo-1,4-dihydroquinolin-2-yl)picolinonitrile] | 85
22 | > 100 | < 10 | < 10 | > 100 | – | CN(C)C(=O)N1CCN(c2c(F)cc3[nH]c(-c4cc(C#N)ncc4Cl)cc(=O)c3c2F)CC1 [Example 21, 4-(2-(5-chloro-2-cyanopyridin-4-yl)-5,7-difluoro-4-oxo-1,4-dihydroquinolin-6-yl)-N,N-dimethylpiperazine-1-carboxamide] | 81
